Patent US20100173833A1, “METHODS AND COMPOSITION FOR USE OF CYCLIC ANALOGUES OF HISTATIN” (priority 2007, published 2010)
Values after ≈ are worked out from the molar mass of the structure shown. Bridge positions count the residues as written; N and C are the ends. Peptide text beside a SMILES is read from it.

Legend:
[1] = tested on: Candida albicans (isolate #AST97); settings: clinical isolate AST97 (blood culture); 1 hour 37° C. in 10 mM NaCl/50 mM MOPS, pH 7.2, then YPD 24 hours 30° C.
S. aurens (ATCC 25923) = settings: lab strain ATCC 25923; 1 hour 37° C. in 10 mM NaCl/50 mM MOPS, pH 7.2, then YPD 24 hours 37° C.
[2] = tested on: Candida albicans (isolate #77); settings: clinical isolate #77; 1 hour 37° C. in 10 mM NaCl/50 mM MOPS, pH 7.2, then YPD 24 hours 30° C.
adult rats = test: Tolerability in adult rats, intra-venous injection; format: in vivo
Experimental: (§1) In addition, mice were able to withstand a concentration of 15 mg/kg of DB2121 when injected via an intra-peritoneal route. When injected into adult rats, a concentration of up to and including 1.5 mg/kg caused no harm when injected intra-venously.

phosphorylated ERK 1, 2 = settings: 50 μM, primary human foreskin epithelial cells
Experimental: Toxicological studies of DB2121 in human cells were also undertaken. Primary human neonatal foreskin epithelial cells were used to examine DB2121 toxicity, using a method as described in Min et al. 2004. […] At 18 and 36 hours following addition of compound, the foreskin epithelial cells were imaged using phase contract microscopy at 20× magnification. (E) Immediately following the image analysis, proteins were extracted, separated on SDS-PAGE gels, Western blotted, and probed for Phosphorylated and non-phosphorylated ERK 1, 2 to monitor the proliferation of the foreskin keratinocytes. The experiments was repeated three times.
The primary cells were lysed and monitored for a marker of proliferation namely phosphorylated ERK 1, 2.

[3] = tested on: primary human foreskin epithelial cell culture; settings: various concentrations, 0, 36 and 72 hours (FIG. 3)
Experimental: To determine range of non-toxic concentrations of DB2121, various concentration s of DB2121, 50 μM ketoconazole or DMSO as a control were separately added to primary human foreskin epithelial cell culture. At 0, 36 and 72 hours after addition, the epithelial cells were titriated off the culture plate and the viable cell number was determined. The experiment was performed in triplicate. At 72 hours, the foreskin epithelial cells exposed to the various compounds were imaged at 20× magnification using phase contrast microscopy. For cell counting, the epithelial cells were stained with trypan exclusion stain to monitor cell viability.

MRSAS. aureus (STRAIN 2) = settings: clinical MRSA strain 2; 1 hour 37° C. in 10 mM NaCl/50 mM MOPS, pH 7.2, then YPD 24 hours 37° C.
mice = test: Tolerability in mice, intra-peritoneal injection; format: in vivo
Experimental: as §1

[4] = tested on: Candida albicans (isolate #28); settings: clinical isolate #28; 1 hour 37° C. in 10 mM NaCl/50 mM MOPS, pH 7.2, then YPD 24 hours 30° C.
[5] = tested on: Candida albicans (isolate #98); settings: clinical isolate #98; 1 hour 37° C. in 10 mM NaCl/50 mM MOPS, pH 7.2, then YPD 24 hours 30° C.
MRSAS. aureus (STRAIN 1) = settings: clinical MRSA strain 1; 1 hour 37° C. in 10 mM NaCl/50 mM MOPS, pH 7.2, then YPD 24 hours 37° C.
[6] = tested on: Candida albicans (isolate #3); settings: clinical isolate #3; 1 hour 37° C. in 10 mM NaCl/50 mM MOPS, pH 7.2, then YPD 24 hours 30° C.
[7] = tested on: Candida tropicalis (isolate #93); settings: clinical isolate #93; 1 hour 37° C. in 10 mM NaCl/50 mM MOPS, pH 7.2, then YPD 24 hours 30° C.
[8] = tested on: S. haemolyticus (ATCC 29970); settings: lab strain ATCC 29970; 1 hour 37° C. in 10 mM NaCl/50 mM MOPS, pH 7.2, then YPD 24 hours 37° C.
Bacillus subtilis = test: MIC, inhibition of cell growth; format: cell-based; settings: lab strain; 1 hour 37° C. in 10 mM NaCl/50 mM MOPS, pH 7.2, then YPD 24 hours 37° C.
[9] = tested on: Candida albicans (isolate #5); settings: clinical isolate #5; 1 hour 37° C. in 10 mM NaCl/50 mM MOPS, pH 7.2, then YPD 24 hours 30° C.
[10] = tested on: Candida albicans (isolate #11); settings: clinical isolate #11; 1 hour 37° C. in 10 mM NaCl/50 mM MOPS, pH 7.2, then YPD 24 hours 30° C.
[11] = tested on: Primary human neonatal foreskin epithelial cells; settings: 50 μM working (antimicrobial) concentration
Experimental: At 18 and 36 hours following addition of compound, the foreskin epithelial cells were imaged using phase contract microscopy at 20× magnification. […] The experiments was repeated three times.

[12] = tested on: Candida albicans (isolate #99); settings: clinical isolate #99; 1 hour 37° C. in 10 mM NaCl/50 mM MOPS, pH 7.2, then YPD 24 hours 30° C.
[13] = 1 uM, 37° C., in vitro
Experimental: The cyclic analogue was incubated in human saliva at a concentration of 1 uM and at a temperature of 37° C. in vitro. At various time points from 0 to 72 hours, 1.0 ul aliquots were taken and injected directly into a Micromass Quattro Micro mass spectrometer. Data was collected for a total of 3 minutes. The data was then processed using Mass Lynx 4.0 Analysis software.

[14] = tested on: Candida albicans (SC5314); settings: lab strain; 1 hour 37° C. in 10 mM NaCl/50 mM MOPS, pH 7.2, then YPD broth 24 hours 30° C.
[15] = tested on: Candida albicans (isolate #4); settings: clinical isolate #4; 1 hour 37° C. in 10 mM NaCl/50 mM MOPS, pH 7.2, then YPD 24 hours 30° C.
[16] = tested on: Candida dubliniensis (isolate #10); settings: clinical isolate #10; 1 hour 37° C. in 10 mM NaCl/50 mM MOPS, pH 7.2, then YPD 24 hours 30° C.
S. aureus (ATCC 29213) = settings: lab strain ATCC 29213; 1 hour 37° C. in 10 mM NaCl/50 mM MOPS, pH 7.2, then YPD 24 hours 37° C.
S. aurens (ATCC 43300) = settings: lab strain ATCC 43300; 1 hour 37° C. in 10 mM NaCl/50 mM MOPS, pH 7.2, then YPD 24 hours 37° C.
Candida albicans = settings: concentration of cyclic Histatin analogue, alone or in combination; 1 hour 37° C. in 20 mM Tris-Cl, pH 7.2, 20 mM NaCl, then YPD 24 hours

## N=C(N)NCCC[C@H](NC(=O)[C@H](Cc1c[nH]cn1)NC(=O)[C@@H]1CSSC[C@H](NC(=O)[C@H](Cc2c[nH]cn2)NC(=O)[C@H](Cc2c[nH]cn2)NC(=O)[C@@H](N)CCCNC(=N)N)C(=O)N[C@@H](Cc2ccc(O)cc2)C(=O)N[C@@H](CCCCN)C(=O)N[C@@H](CCCNC(=N)N)C(=O)N[C@@H](CCCCN)C(=O)N[C@@H](Cc2ccccc2)C(=O)N[C@@H](Cc2c[nH]cn2)C(=O)N[C@@H](CCC(=O)O)C(=O)N[C@@H](CCCCN)C(=O)N[C@@H](Cc2c[nH]cn2)C(=O)N[C@@H](Cc2c[nH]cn2)C(=O)N1)C(=O)NCC(=O)N[C@@H](Cc1ccc(O)cc1)C(=O)O [DB2121] (H-RHHCYKRKFHEKHHCHRGY-OH; disulfide 4-15)
[1]
  MIC: 7.8 µM (≈ 20 µg/mL)
S. aurens (ATCC 25923)
  MIC: 4.5 µM (≈ 11.5 µg/mL)
[2]
  MIC: 4.5 µM (≈ 11.5 µg/mL)
Adult rats
  concentration that caused no harm: ≤ 1.5 mg/kg
Phosphorylated ERK 1, 2
  ERK 1, 2 activation compared to control: not suppressed
[3]
  toxicity in primary cultured cells (viable cell number): minimal toxicity
MRSAS. aureus (STRAIN 2)
  MIC: 11.5 µM (≈ 29.4 µg/mL)
mice
  concentration withstood: 15 mg/kg
[4]
  MIC: 4.5 µM (≈ 11.5 µg/mL)
[5]
  MIC: 4.5 µM (≈ 11.5 µg/mL)
MRSAS. aureus (STRAIN 1)
  MIC: 11.5 µM (≈ 29.4 µg/mL)
[6]
  MIC: 8.0 µM (≈ 20.5 µg/mL)
[7]
  MIC: 4.5 µM (≈ 11.5 µg/mL)
[8]
  MIC: 4.5 µM (≈ 11.5 µg/mL)
Bacillus subtilis
  MIC: 23.9 µM (≈ 61.1 µg/mL)
[9]
  MIC: 4.5 µM (≈ 11.5 µg/mL)
[10]
  MIC: 6.5 µM (≈ 16.6 µg/mL)
[11]
  toxicity to human primary cells: non-toxic
[12]
  MIC: 4.5 µM (≈ 11.5 µg/mL)
[13]
  stable in human saliva: at least 72 hours
[14]
  MIC: 4.5 µM (≈ 11.5 µg/mL)
[15]
  MIC: 4.5 µM (≈ 11.5 µg/mL)
[16]
  MIC: 4.5 µM (≈ 11.5 µg/mL)
S. aureus (ATCC 29213)
  MIC: 12.5 µM (≈ 32 µg/mL)
S. aurens (ATCC 43300)
  MIC: 5.5 µM (≈ 14.1 µg/mL)
Candida albicans
  MIC (DB2121): 11 µM
